The results in this text go back to patent publication US7282608B2, “Inhibitors of histone deacetylase” (Methylgene, Inc., priority 2002, dated 2007).

The target in assay [1] is T1, cloned recombinant human HDAC-1 (Homo sapiens, UniProt Q13547).
T1 construct: made in house; host or cells: Baculovirus insect cell expression system
Nature of the assay: Human HDAC-1 Assay 1: [3H]-acetylated histone deacetylase assay. Type of assay: biochemical. As to conditions: Assay 1, unbracketed data; [3H]-acetylated histone substrate, 10 min at 37° C. How it is done: HDAC inhibitors were screened against a cloned recombinant human HDAC-1 enzyme expressed and purified from a Baculovirus insect cell expression system. For deacetylase assays, 20,000 cpm of the [^3H]-metabolically labeled acetylated histone substrate (M. Yoshida et al., J. Biol. Chem. 265(28): 17174–17179 (1990)) was incubated with 30 μg of the cloned recombinant hHDAC-1 for 10 minutes at 37° C. The reaction was stopped by adding acetic acid (0.04 M, final concentration) and HCl (250 mM, final concentration). […] For inhibition studies, the enzyme was preincubated with compounds at 4° C. for 30 minutes prior to initiation of the enzymatic assay. IC50 values for HDAC enzyme inhibitors were determined by performing dose response curves with individual compounds and determining the concentration of inhibitor producing fifty percent of the maximal inhibition. IC50 values for representative compounds assayed using this procedure are presented in the third column of Tables 7–10 (excepting bracketed data).

The test system of assay [2] is acetylated histone H-4 in T24 human bladder cancer cells. As to the kind of experiment: Histone H4 acetylation in whole cells by immunoblots. Type of assay: cell-based. As to conditions: 16 h, immunoblot densitometry, read-out: H4 Ac (T24) EC50. On the procedure:
T24 human bladder cancer cells growing in culture were incubated with HDAC inhibitors for 16 h. Histones were extracted from the cells after the culture period as described by M. Yoshida et al. (J. Biol. Chem. 265(28): 17174–17179 (1990)). […] of total histone protein was loaded onto SDS/PAGE and transferred to nitrocellulose membranes. Membranes were probed with polyclonal antibodies specific for acetylated histone H-4 (Upstate Biotech Inc.), followed by horse radish peroxidase conjugated secondary antibodies (Sigma). Enhanced Chemiluminescence (ECL) (Amersham) detection was performed using Kodak films (Eastman Kodak). Acetylated H-4 signal was quantified by densitometry. Representative data are presented in the fifth column of Table 7–10. Data are presented as the concentration effective for […] the acetylated H-4 signal by 50% (EC50).
For orientation: A western blot detects proteins with antibodies after separation by electrophoresis.

The test system of assay [3] is HCT116 cells. As to the kind of experiment: MTT assay. As to conditions: Homo sapiens, HCT-116, 72 hours. Type of assay: cell-based. On the procedure: HCT116 cells (2000/well) were plated into 96-well tissue culture plates one day before compound treatment. Compounds at various concentrations were added to the cells. The cells were incubated for 72 hours at 37° C. in 5% CO2 incubator. MTT (3-[4,5-dimethylthiazol-2-yl]-2,5 diphenyl tetrazolium bromide, Sigma) was added at a final concentration of 0.5 mg/ml and incubated with the cells for 4 hours before one volume of solubilization buffer (50% N,N-dimethylformamide, 20% SDS, pH 4.7) was added onto the cultured cells. After overnight incubation, solubilized dye was quantified by colorimetric reading at […] using a reference at […] using an MR700 plate reader (Dynatech Laboratories Inc.). OD values were converted to cell numbers according to a standard growth curve of the relevant cell line. The concentration which reduces cell numbers to 50% of that of solvent treated cells is determined as MTT IC50. IC50 values for representative compounds are presented in the fourth column of Tables 7–10.
Background: Formazan colour is commonly taken as a measure of viable cells.

The subject of assay [4] is HCT116 human colorectal carcinoma cells. Nature of the assay: Antineoplastic effects on human tumor xenografts in vivo. More on the design: species or system CD1 nude mice. Conditions: HCT116 xenograft, daily injection i.v., s.c. or i.p., starting dose 10 mg/kg. How it is done:
Eight to ten week old female CD1 nude mice (Taconic Labs, Great Barrington, N.Y.) were injected subcutaneously in the flank area with 2×10^6 preconditioned HCT116 human colorectal carcinoma cells. Preconditioning of these cells was done by a minimum of three consecutive tumor transplantations in the same strain of nude mice. Subsequently, tumor fragments of approximately 30 mgs were excised and implanted subcutaneously in mice, in the left flank area, under Forene anesthesia (Abbott Labs, Geneva, Switzerland). When the tumors reached a mean volume of 100 mm^3, the mice were treated intravenously, subcutaneously, or intraperitoneally by daily injection, with a solution of the histone deacetylase inhibitor in an appropriate vehicle, such as PBS, DMSO/water, or Tween 80/water, at a starting dose of 10 mg/kg. The optimal dose of the HDAC inhibitor was established by dose response experiments according to standard protocols. Tumor volume was calculated every second day post infusion according to standard methods (e.g., Meyer et al., Int. J. Cancer 43: 851–856 (1989)).
A general note: In xenograft studies the graft and the host belong to different species.

Usually IC50 stands for the concentration that inhibits the measured activity by half. A word on the EC50: it is the concentration at which the effect is half-maximal.

T1 sequence (Q13547 whole entry): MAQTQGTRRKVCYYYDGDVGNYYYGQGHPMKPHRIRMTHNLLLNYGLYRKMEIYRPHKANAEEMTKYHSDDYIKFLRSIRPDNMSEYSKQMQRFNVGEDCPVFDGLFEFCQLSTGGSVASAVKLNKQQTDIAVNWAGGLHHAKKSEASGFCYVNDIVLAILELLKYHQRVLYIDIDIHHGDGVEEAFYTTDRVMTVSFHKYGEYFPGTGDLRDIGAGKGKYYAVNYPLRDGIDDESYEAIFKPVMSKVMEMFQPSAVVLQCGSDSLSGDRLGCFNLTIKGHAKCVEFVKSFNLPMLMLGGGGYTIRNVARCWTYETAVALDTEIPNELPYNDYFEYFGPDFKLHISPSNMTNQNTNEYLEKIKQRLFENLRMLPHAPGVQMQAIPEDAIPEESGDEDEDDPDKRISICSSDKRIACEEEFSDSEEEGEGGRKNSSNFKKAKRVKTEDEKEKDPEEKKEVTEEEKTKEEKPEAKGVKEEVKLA

For `Nc1ccccc1NC(=O)c1ccc(/C=C/CNc2nccc(-c3cccnc3)n2)cc1` [XVj, N-(2-Amino-phenyl)-4-[3-(4-pyridin-3-yl-pyrimidin-2-ylamino)-propenyl]-benzamide], the IC50 in assay [1] came to 2 µM; in assay [3] it was 0.2 µM. For the same molecule, in assay [2], the EC50 was < 1 µM. The “reduction in tumor weight and volume relative to vehicle controls” value in assay [4] was “significant reduction in tumor weight and volume”.
